Measurements published in ChEMBL document CHEMBL1157124, “Synthesis and anticancer evaluation of alpha-lipoic acid derivatives” (Bioorg Med Chem Lett, 2010).
Activity calls are given as the source filed them. The rule behind the calls is not given here.

Assays:
Assay type in all cases: functional
[1] = system: KB; test: Cytotoxicity against human KB cells assessed as growth inhibition at 100 ug/ml after 24 hrs by MTT assay; conditions: read-out: GI
[2] = system: PC-3; test: Cytotoxicity against human PC3 cells assessed as growth inhibition at 0.1 ug/ml after 24 hrs by MTT assay; conditions: for inhibition of growth at 0.1 µg/mL: PC-3, 24 h, read-out: GI
[3] = system: PC-3; test: Cytotoxicity against human PC3 cells assessed as growth inhibition at 100 ug/ml after 24 hrs by MTT assay; conditions: PC-3, 24 h, read-out: GI
[4] = system: PC-3; test: Cytotoxicity against human PC3 cells assessed as growth inhibition at 10 ug/ml after 24 hrs by MTT assay; conditions: for inhibition of growth at 10 µg/mL: PC-3, 24 h, read-out: GI
[5] = system: Bel-7402; test: Cytotoxicity against human Bel7402 cells assessed as growth inhibition at 0.1 ug/ml after 24 hrs by MTT assay; conditions: Bel-7402, 24 h, read-out: GI
[6] = system: NCI-H460; test: Cytotoxicity against human NCI-H460 cells assessed as growth inhibition at 1 ug/ml after 24 hrs by MTT assay; conditions: NCI-H460, 24 h, read-out: GI
[7] = system: KB; test: Cytotoxicity against human KB cells assessed as growth inhibition at 10 ug/ml after 24 hrs by MTT assay; conditions: read-out: GI
[8] = system: PC-3; test: Cytotoxicity against human PC3 cells assessed as growth inhibition at 1 ug/ml after 24 hrs by MTT assay; conditions: for inhibition of growth at 1 µg/mL: PC-3, 24 h, read-out: GI
[9] = Cytotoxicity against human HO8910 cells assessed as growth inhibition at 100 ug/ml after 24 hrs by MTT assay; conditions: HO-8910, 24 h, read-out: GI
[10] = system: KB; test: Cytotoxicity against human KB cells assessed as growth inhibition at 0.1 ug/ml after 24 hrs by MTT assay; conditions: read-out: GI
[11] = system: NCI-H460; test: Cytotoxicity against human NCI-H460 cells assessed as growth inhibition at 0.1 ug/ml after 24 hrs by MTT assay; conditions: NCI-H460, 24 h, read-out: GI
[12] = system: Bel-7402; test: Cytotoxicity against human Bel7402 cells assessed as growth inhibition at 1 ug/ml after 24 hrs by MTT assay; conditions: Bel-7402, 24 h, read-out: GI
[13] = system: Bel-7402; test: Cytotoxicity against human Bel7402 cells assessed as growth inhibition at 100 ug/ml after 24 hrs by MTT assay; conditions: Bel-7402, 24 h, read-out: GI
[14] = system: Bel-7402; test: Cytotoxicity against human Bel7402 cells assessed as growth inhibition at 10 ug/ml after 24 hrs by MTT assay; conditions: Bel-7402, 24 h, read-out: GI
[15] = system: NCI-H460; test: Cytotoxicity against human NCI-H460 cells assessed as growth inhibition at 100 ug/ml after 24 hrs by MTT assay; conditions: NCI-H460, 24 h, read-out: GI
[16] = system: KB; test: Cytotoxicity against human KB cells assessed as growth inhibition at 1 ug/ml after 24 hrs by MTT assay; conditions: read-out: GI
[17] = system: NCI-H460; test: Cytotoxicity against human NCI-H460 cells assessed as growth inhibition at 10 ug/ml after 24 hrs by MTT assay; conditions: NCI-H460, 24 h, read-out: GI
[18] = Cytotoxicity against human HO8910 cells assessed as growth inhibition at 10 ug/ml after 24 hrs by MTT assay; conditions: HO-8910, 24 h, read-out: GI
[19] = Cytotoxicity against human HO8910 cells assessed as growth inhibition at 1 ug/ml after 24 hrs by MTT assay; conditions: HO-8910, 24 h, read-out: GI
[20] = Cytotoxicity against human HO8910 cells assessed as growth inhibition at 0.1 ug/ml after 24 hrs by MTT assay; conditions: HO-8910, 24 h, read-out: GI

SMILES | inhibition of growth at 100 µg/mL [1] [%] | inhibition of growth at 0.1 µg/mL [2] [%] | inhibition of growth at 100 µg/mL [3] [%] | inhibition of growth at 10 µg/mL [4] [%] | inhibition of growth at 0.1 µg/mL [5] [%] | inhibition of growth at 1 µg/mL [6] [%] | inhibition of growth at 10 µg/mL [7] [%] | inhibition of growth at 1 µg/mL [8] [%] | inhibition of growth at 100 µg/mL [9] [%] | inhibition of growth at 0.1 µg/mL [10] [%] | inhibition of growth at 0.1 µg/mL [11] [%] | inhibition of growth at 1 µg/mL [12] [%] | inhibition of growth at 100 µg/mL [13] [%] | inhibition of growth at 10 µg/mL [14] [%] | inhibition of growth at 100 µg/mL [15] [%] | inhibition of growth at 1 µg/mL [16] [%] | inhibition of growth at 10 µg/mL [17] [%] | inhibition of growth at 10 µg/mL [18] [%] | inhibition of growth at 1 µg/mL [19] [%] | inhibition of growth at 0.1 µg/mL [20] [%] | further results
O=C(CCCCC1CCSS1)Nc1ccc(Cl)cc1 (stereo not given) | 83.1 | 18.9 | 41.2 | 14.7 | 3.37 | 10.9 | 21.7 | 13.7 | 74.8 | 16.4 | 13 | 0.64 | 76.4 | 7.01 | 68.7 | 18.6 | 18.3 | 0.75 | – | – | –
O=C(CCCCC1CCSS1)Nc1cccc(Cl)c1 (stereo not given) | 76.5 | 17.1 | 79.5 | 13.8 | 0.33 | 8.85 | 7.88 | 8.44 | 68.3 | 2.85 | 6.08 | 1.11 | 68.2 | 4.15 | 65.2 | – | 10.1 | – | – | – | –
O=C(CCCCC(S)CCS)Nc1ccc([N+](=O)[O-])c(C(F)(F)F)c1 (stereo not given) | 95.5 | 8.06 | 79.9 | 45.5 | 6.54 | 6.29 | 4.04 | 1.08 | 92.7 | – | 3.2 | 0.68 | 91.7 | – | 95.8 | 10.2 | 0.97 | – | 1.17 | 1.95 | –
O=C(CCCCC(S)CCS)Nc1ccc(OC(F)(F)F)cc1 (stereo not given) | 73.3 | 14.9 | 75.5 | 42.5 | – | 19.1 | 15 | 12.6 | 66.8 | 7.27 | 17.2 | 7.32 | 49.7 | 14.2 | 65.1 | 6 | 29.2 | 6.11 | 0.56 | – | –
O=C(CCCCC1CCSS1)Nc1ccc([N+](=O)[O-])c(C(F)(F)F)c1 (stereo not given) | 49.5 | 5.37 | 90.2 | – | 5.04 | 19.1 | – | – | 47.6 | 4.5 | 18.8 | 7.46 | 23.9 | – | 51.6 | – | 12 | – | 0.96 | – | growth inhibition (GI) [4]: inactive; growth inhibition (GI) [8]: inactive
Cc1cccc(NC(=O)CCCCC2CCSS2)c1 (stereo not given) | 68 | 2.13 | 75.1 | 9.57 | 9.88 | 7.82 | 4.13 | 9.98 | 62.7 | 4.29 | 7.97 | 10.3 | 49.9 | 9.01 | 52.9 | 5.2 | 4.15 | – | 4.54 | 3.68 | –
O=C(CCCC[C@H]1CCSS1)Nc1ccc([N+](=O)[O-])c(C(F)(F)F)c1 | 95.8 | – | 79.8 | – | – | – | – | – | 92.3 | – | – | – | 94 | – | 92.2 | – | – | – | – | 1.06 | growth inhibition (GI) [2]: inactive; growth inhibition (GI) [4]: inactive; growth inhibition (GI) [8]: inactive
O=C(O)CCCCC(CCSC(=O)c1ccccc1)SC(=O)c1ccccc1 (stereo not given) | 89.8 | 9.54 | 91.2 | 7.43 | 1.09 | 0.77 | 2.68 | 9.86 | 86.7 | – | – | – | 81 | 2.76 | 72.8 | 0.68 | – | – | 0.29 | – | –
O=C(CCCCC1CCSS1)Nc1ccc([N+](=O)[O-])cc1 (stereo not given) | 71.3 | 13.9 | 79.6 | 6.67 | – | 7.45 | 14.4 | 19.9 | 64.5 | 0.22 | 11.9 | – | 52.6 | 4.83 | 56.7 | – | 22.7 | 0.61 | 0.33 | – | –
O=C(CCCC[C@@H]1CCSS1)Nc1ccc([N+](=O)[O-])c(C(F)(F)F)c1 | 49.1 | – | 59 | – | – | – | – | – | 39.2 | – | – | – | 43.4 | – | 35.4 | – | – | – | – | – | growth inhibition (GI) [2]: inactive; growth inhibition (GI) [4]: inactive; growth inhibition (GI) [8]: inactive
